Test results as given in ChEMBL document CHEMBL5532645, “Discovery of proteolysis-targeting chimera targeting undruggable proteins using a covalent ligand screening approach” (Eur J Med Chem, 2024).
Activity calls are given as the source filed them. The rule behind the calls is not given here.

Legend:
[1] = biological target: T1, Protein cereblon/E3 ubiquitin-protein ligase Mdm2 (Homo sapiens) (UniProt Q00987+Q96SW2); assay: PROTAC activity at CRBN/MDM2 in human HEK293 cells at 30 uM measured after 24 hrs Western blot analysis relative to control; format: cell-based
[2] = biological target: T1, Protein cereblon/E3 ubiquitin-protein ligase Mdm2 (Homo sapiens); assay: PROTAC activity at CRBN/MDM2 in human HEK293 cells assessed as induction of MDM2 degradation at 3 to 10 uM; format: cell-based; settings: dose 3-10 µM
[3] = biological target: T1, Protein cereblon/E3 ubiquitin-protein ligase Mdm2 (Homo sapiens); assay: PROTAC activity at CRBN/MDM2 in human HEK293 cells at 3 to 10 uM preincubated with MLN4924 for 4 hrs followed by compound addition and measured after 20 hrs by Western blot analysis; format: cell-based; settings: dose 3-10 µM
[4] = biological target: T1, Protein cereblon/E3 ubiquitin-protein ligase Mdm2 (Homo sapiens); assay: PROTAC activity at CRBN/MDM2 in human HEK293 cells at 3 to 10 uM preincubated with MG132 for 4 hrs followed by compound addition and measured after 20 hrs by Western blot analysis; format: cell-based; settings: dose 3-10 µM
[5] = biological target: T1, Protein cereblon/E3 ubiquitin-protein ligase Mdm2 (Homo sapiens); assay: PROTAC activity at CRBN/MDM2 in human HEK293 cells assessed as induction of MDM2 degradation at 30 uM by Western blot analysis; format: cell-based; settings: time 2-24 hrs, TDE = time-dependent effect
[6] = biological target: T1, Protein cereblon/E3 ubiquitin-protein ligase Mdm2 (Homo sapiens); assay: PROTAC activity at CRBN/MDM2 in human HEK293 cells assessed as maximum degradation at 10 uM measured after 24 to 48 hrs by Western blot analysis; format: cell-based; settings: time 24-48 hrs
[7] = biological target: T1, Protein cereblon/E3 ubiquitin-protein ligase Mdm2 (Homo sapiens); assay: PROTAC activity at CRBN/MDM2 in human HEK293 cells assessed as induction of MDM2 degradation measured after 24 hrs by Western blot analysis; format: cell-based; settings: dose 3-30 µM
HEK293 = assay: Cytotoxicity against HEK293 cells assessed as cell viability at 0.3 uM incubated for 24 hrs by cell counting kit 8 method; format: toxicity, cell-based; settings: human, hek293, 24 h
[8] = biological target: T1, Protein cereblon/E3 ubiquitin-protein ligase Mdm2 (Homo sapiens); assay: PROTAC activity at CRBN/MDM2 in human HEK293 cells assessed as increase in MDM2 expression at 30 uM measured after 6 hrs by Western blot analysis; format: cell-based
[9] = biological target: T1, Protein cereblon/E3 ubiquitin-protein ligase Mdm2 (Homo sapiens); assay: PROTAC activity at CRBN/MDM2 in human HEK293 cells assessed as induction of MDM2 degradation at 30 uM measured after 24 hrs by Western blot analysis; format: cell-based
[10] = biological target: T1, Protein cereblon/E3 ubiquitin-protein ligase Mdm2 (Homo sapiens); assay: PROTAC activity at CRBN/MDM2 in human HEK293 cells assessed as induction of MDM2 degradation at 30 uM measured after 2 hrs by Western blot analysis; format: cell-based

T1 sequence (Q00987 whole entry, looked up): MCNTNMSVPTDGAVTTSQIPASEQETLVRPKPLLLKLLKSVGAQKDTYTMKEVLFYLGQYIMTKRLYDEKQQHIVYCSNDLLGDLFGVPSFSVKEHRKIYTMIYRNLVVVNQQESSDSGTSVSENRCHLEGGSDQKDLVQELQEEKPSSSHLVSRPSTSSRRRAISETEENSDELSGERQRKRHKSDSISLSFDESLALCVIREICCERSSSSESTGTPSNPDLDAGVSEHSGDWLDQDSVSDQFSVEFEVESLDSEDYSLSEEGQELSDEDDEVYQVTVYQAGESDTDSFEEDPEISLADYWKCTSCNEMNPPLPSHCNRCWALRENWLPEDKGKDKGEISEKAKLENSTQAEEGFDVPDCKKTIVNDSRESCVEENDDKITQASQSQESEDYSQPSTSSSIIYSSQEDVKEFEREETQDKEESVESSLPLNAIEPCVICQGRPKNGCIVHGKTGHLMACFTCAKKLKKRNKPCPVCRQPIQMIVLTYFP
T1 sequence (Q96SW2 whole entry, looked up): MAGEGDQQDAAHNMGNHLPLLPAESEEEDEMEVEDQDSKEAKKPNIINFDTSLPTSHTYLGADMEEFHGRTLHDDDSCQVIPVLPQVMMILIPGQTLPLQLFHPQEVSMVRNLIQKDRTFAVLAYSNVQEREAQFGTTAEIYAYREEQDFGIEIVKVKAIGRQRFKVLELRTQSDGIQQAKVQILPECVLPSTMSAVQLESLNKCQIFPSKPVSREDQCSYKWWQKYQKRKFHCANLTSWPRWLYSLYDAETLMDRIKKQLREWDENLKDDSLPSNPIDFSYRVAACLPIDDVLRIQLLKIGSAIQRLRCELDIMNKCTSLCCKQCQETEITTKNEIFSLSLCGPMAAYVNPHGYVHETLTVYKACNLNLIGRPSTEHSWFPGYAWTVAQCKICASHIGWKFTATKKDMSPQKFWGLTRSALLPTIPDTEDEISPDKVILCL

**Q.** For `CN1C(=O)CCC(N2C(=O)c3cccc(NCCOCCC(=O)N(C)C(c4ccc(F)cc4)c4cccnc4)c3C2=O)C1=O` (stereo not given), which Emax [1] is on record?
**A.** inactive

**Q.** And the Activity [2]?
**A.** inactive

**Q.** Which Emax [1] does the source give for `O=C1CCC(N2C(=O)c3ccc(NCCOCCC(=O)N4CCOC(c5cccc(OC(F)F)c5)C4)cc3C2=O)C(=O)N1` (stereo not given) here?
**A.** 23.2%

**Q.** For `CN(C(=O)CCOCCOCCNc1cccc2c1C(=O)N(C1CCC(=O)NC1=O)C2=O)C(c1ccc(F)cc1)c1cccnc1` (stereo not given), which Emax [1] is on record?
**A.** 26.5%

**Q.** Which results are given for `CN(C(=O)CCOCCNc1cccc2c1C(=O)N(C1CCC(=O)NC1=O)C2=O)C(c1ccc(F)cc1)c1cccnc1` (stereo not given)?
**A.** Emax [1]: 31.2%; Activity [3]: inactive; Activity [4]: inactive; Activity [2]: Active; Activity [5]: Tde; Activity [6]: Active; Activity [7]: Dose-Dependent Effect

**Q.** With `NS(=O)(=O)OC[C@@H]1C[C@@H](n2ccc3c(N[C@H]4CCc5ccccc54)ncnc32)C[C@@H]1O` [PEVONEDISTAT] as the molecule, how does the Activity (HEK293) read?
**A.** Non-Toxic

**Q.** For `CN(C(=O)CCOCCOCCOCCNc1cccc2c1C(=O)N(C1CCC(=O)NC1=O)C2=O)C(c1ccc(F)cc1)c1cccnc1` (stereo not given), which Emax [1] is on record?
**A.** 5.6%

**Q.** For `O=C1CCC(N2C(=O)c3ccc(NCCOCCOCCC(=O)N4CCN(c5nccc(C(F)(F)F)n5)CC4)cc3C2=O)C(=O)N1` (stereo not given), which Activity [8] is on record?
**A.** Active

**Q.** What about the Activity [9] of the same molecule?
**A.** inactive

**Q.** What about the Emax [1] of the same molecule?
**A.** 31.5%

**Q.** What about the Activity [10] of the same molecule?
**A.** Active

**Q.** How did the Activity [8] turn out when `O=C1CCC(N2C(=O)c3cccc(NCCOCCOCCC(=O)N4CCOC(c5cccc(OC(F)F)c5)C4)c3C2=O)C(=O)N1` (stereo not given) was run?
**A.** Active

**Q.** What about the Emax [1] of the same molecule?
**A.** 28.3%

**Q.** Which Emax [1] does the source give for `CN(C(=O)CCOCCOCCOCCOCCNc1cccc2c1C(=O)N(C1CCC(=O)NC1=O)C2=O)C(c1ccc(F)cc1)c1cccnc1` (stereo not given) here?
**A.** 5.5%
